Experimental findings from patent US10266497B2 (ABIDE THERAPEUTICS, INC., priority 2017, dated 2019) are described below.

Each structure is given as a SMILES string. A value given as a limit tells only on which side of the number the result lay.

Test [1] deals with T1, FAAH (Homo sapiens, UniProt O00519).
T1 sequence (O00519 1-579): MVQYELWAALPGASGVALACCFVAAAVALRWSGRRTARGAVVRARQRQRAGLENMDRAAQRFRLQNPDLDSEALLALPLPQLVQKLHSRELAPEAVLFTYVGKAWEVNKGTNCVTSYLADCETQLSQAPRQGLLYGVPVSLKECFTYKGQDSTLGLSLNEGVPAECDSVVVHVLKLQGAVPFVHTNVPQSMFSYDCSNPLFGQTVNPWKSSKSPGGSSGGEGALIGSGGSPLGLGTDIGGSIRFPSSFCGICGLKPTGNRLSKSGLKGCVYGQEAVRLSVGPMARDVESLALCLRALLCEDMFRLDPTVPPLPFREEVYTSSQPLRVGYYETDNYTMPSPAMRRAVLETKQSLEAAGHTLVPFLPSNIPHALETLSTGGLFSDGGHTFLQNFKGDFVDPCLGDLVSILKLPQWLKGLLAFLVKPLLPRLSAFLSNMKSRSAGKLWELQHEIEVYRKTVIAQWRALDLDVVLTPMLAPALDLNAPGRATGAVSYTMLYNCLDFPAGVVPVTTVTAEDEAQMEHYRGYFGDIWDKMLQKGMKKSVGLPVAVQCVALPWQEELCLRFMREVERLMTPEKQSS
Put plainly: In vitro competitive activity-based protein profiling, FAAH, human. As to conditions: for inhibition at 1 µM: read-out: FAAH % inh. 1 μM (human).

The target of test [2] is T2, MAGL (Homo sapiens, UniProt Q99685).
T2 sequence (Q99685 1-303): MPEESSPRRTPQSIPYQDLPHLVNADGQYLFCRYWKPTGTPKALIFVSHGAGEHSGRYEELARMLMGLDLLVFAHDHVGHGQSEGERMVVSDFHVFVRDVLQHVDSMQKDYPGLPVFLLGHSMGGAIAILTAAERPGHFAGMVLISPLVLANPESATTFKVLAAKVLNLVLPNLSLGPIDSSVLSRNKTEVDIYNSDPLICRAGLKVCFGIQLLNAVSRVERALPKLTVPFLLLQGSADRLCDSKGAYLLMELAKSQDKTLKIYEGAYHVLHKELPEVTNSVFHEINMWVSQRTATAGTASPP
The test is described as follows: In vitro competitive activity-based protein profiling, MAGL, human. The note with it: read-out: MAGL % inh. 1 μM (human).

Test [3] addresses T3, FAAH (Mus musculus, UniProt O08914).
T3 sequence (O08914 1-579): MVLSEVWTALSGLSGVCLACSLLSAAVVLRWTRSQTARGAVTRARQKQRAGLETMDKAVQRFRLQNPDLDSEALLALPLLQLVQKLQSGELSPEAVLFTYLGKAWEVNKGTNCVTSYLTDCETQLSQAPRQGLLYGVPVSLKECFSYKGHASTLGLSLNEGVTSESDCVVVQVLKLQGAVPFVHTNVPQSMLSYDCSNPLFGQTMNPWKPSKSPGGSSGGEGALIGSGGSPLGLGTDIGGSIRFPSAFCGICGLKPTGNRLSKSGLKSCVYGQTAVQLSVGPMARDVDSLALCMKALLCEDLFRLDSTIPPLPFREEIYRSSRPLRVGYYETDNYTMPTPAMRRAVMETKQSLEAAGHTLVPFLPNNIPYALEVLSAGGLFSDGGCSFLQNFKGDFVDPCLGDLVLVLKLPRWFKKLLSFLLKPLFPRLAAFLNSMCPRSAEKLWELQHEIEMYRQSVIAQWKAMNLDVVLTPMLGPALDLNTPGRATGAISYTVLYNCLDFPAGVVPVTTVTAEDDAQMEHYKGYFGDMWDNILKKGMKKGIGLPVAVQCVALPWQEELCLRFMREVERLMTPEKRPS
Put plainly: In vitro competitive activity-based protein profiling, FAAH, mouse. As to conditions: read-out: FAAH % inh. 1 μM (mouse).

Test [4] has as its target T4, MAGL (Mus musculus, UniProt O35678).
T4 sequence (O35678 1-303): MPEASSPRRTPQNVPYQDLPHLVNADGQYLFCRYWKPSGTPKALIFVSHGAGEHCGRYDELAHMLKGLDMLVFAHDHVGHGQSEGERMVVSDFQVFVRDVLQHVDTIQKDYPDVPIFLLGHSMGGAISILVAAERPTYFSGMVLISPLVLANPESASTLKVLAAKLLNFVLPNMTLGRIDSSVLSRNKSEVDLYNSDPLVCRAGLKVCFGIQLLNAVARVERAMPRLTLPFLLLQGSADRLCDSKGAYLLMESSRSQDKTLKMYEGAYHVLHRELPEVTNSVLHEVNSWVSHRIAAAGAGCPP
The test is described as follows: In vitro competitive activity-based protein profiling, MAGL, mouse. The note with it: read-out: MAGL % inh. 1 μM (mouse).

The compound `O=C(O)c1nn(C(=O)N2CCC3(CCN(Cc4ccc(N5CCCC5)cc4C(F)(F)F)C3)CC2)cc1Cl` [Example 138, 4-chloro-1-(2-(4-(pyrrolidin-1-yl)-2-(trifluoromethyl)benzyl)-2,8-diazaspiro[4.5]decane-8-carbonyl)-1H-pyrazole-3-carboxylic acid] returned an IC50 in test [1] of 100 to 1000 nM. In addition, the inhibition at 1 µM in test [1] is 0 to 25%; in test [2], over 75%; in test [3] it was 50 to 75%; in test [4] it was over 75%.
As for `O=C(O)c1ccn(C(=O)N2CCN(Cc3ccc(OC(F)(F)F)cc3-c3nnco3)CC2)n1` [Example 68, 1-(4-(2-(1,3,4-oxadiazol-2-yl)-4-(trifluoromethoxy)benzyl)piperazine-1-carbonyl)-1H-pyrazole-3-carboxylic acid], the inhibition at 1 µM in test [1] is 0 to 25%; in test [2], over 75%; in test [3], 0 to 25%; in test [4], over 75%.
`O=C(O)c1ccn(C(=O)N2CCC3(CCN(Cc4ccc(C(F)(F)F)cc4Cl)C3)CC2)n1` [Example 77, 1-(2-(2-chloro-4-(trifluoromethyl)benzyl)-2,8-diazaspiro[4.5]decane-8-carbonyl)-1H-pyrazole-3-carboxylic acid] had an IC50 in test [1] of 1000 to 10000 nM. Moreover, the inhibition at 1 µM in test [1] is 0 to 25%; in test [2], over 75%; in test [3], 0 to 25%; in test [4], over 75%.
In the case of `O=C(O)c1nn(C(=O)N2CC3CN(Cc4cc(Cl)ccc4Cl)CC3C2)cc1C(F)(F)F` (stereo not shown) [Example 146, 1-(5-(2,5-dichlorobenzyl)octa-hydropyrrolo[3,4-c]pyrrole-2-carbonyl)-4-(trifluoromethyl)-1H-pyrazole-3-carboxylic acid], the inhibition at 1 µM in test [1] was over 75%; in test [2], over 75%; in test [3], over 75%; in test [4] it was 50 to 75%.
As to `C[C@@H]1CCCCN1c1cc(C(F)(F)F)ccc1CN1CCN(C(=O)n2ccc(C(=O)O)n2)CC1` [Example 103, (R)-1-(4-(2-(2-methylpiperidin-1-yl)-4-(trifluoromethyl)benzyl)piperazine-1-carbonyl)-1H-pyrazole-3-carboxylic acid], the inhibition at 1 µM in test [1] was 0 to 25%; in test [2], over 75%; in test [3], 0 to 25%; in test [4] it was over 75%.
For `CN(Cc1cccc(Cl)c1N1CCCC1)C1(C)CCN(C(=O)n2ccc(C(=O)O)n2)CC1` [Example 47, 1-(4-((3-chloro-2-(pyrrolidin-1-yl)benzyl)(methyl)amino)-4-methylpiperidine-1-carbonyl)-1H-pyrazole-3-carboxylic acid], the inhibition at 1 µM in test [1] is 0 to 25%; in test [2], over 75%; in test [3], 0 to 25%; in test [4], over 75%.
For `CN(Cc1cc(Cl)ccc1C(F)(F)F)CC1CCN(C(=O)n2ccc(C(=O)O)n2)CC1` [Example 209, 1-(4-(((5-chloro-2-(trifluoromethyl)benzyl)(methyl)amino)methyl)piper-idine-1-carbonyl)-1H-pyrazole-3-carboxylic acid], the concentration for half-maximal inhibition (IC50) in test [1] is 100 to 1000 nM. The inhibition at 1 µM in test [1], in test [2], in test [3] and in test [4] was over 75% throughout.
In the case of `O=C(O)c1ccn(C(=O)N2CCC3(CCN(Cc4cc(F)cc(Cl)c4)C3)CC2)n1` [Example 70, 1-(2-(3-chloro-5-fluorobenzyl)-2,8-diazaspiro[4.5]decane-8-carbonyl)-1H-pyrazole-3-carboxylic acid], the inhibition at 1 µM lay in the range of 50 to 75% in test [1], 25 to 50% in test [2], 0 to 25% in test [3] and 0 to 25% in test [4].
For `O=C(O)c1ccn(C(=O)N2CCN(Cc3ccc(C(F)(F)F)cc3-c3nnn[nH]3)CC2)n1` [Example 5, 1-(4-(2-(1H-Tetrazol-5-yl)-4-(trifluoromethyl)benzyl)piperazine-1-carbonyl)-1H-pyrazole-3-carboxylic Acid], the inhibition at 1 µM is 0 to 25% in test [1], over 75% in test [2], 0 to 25% in test [3] and 50 to 75% in test [4].
With `O=C(O)c1ccn(C(=O)N2CCN(Cc3ccc(C(F)(F)F)cc3N3CCC(F)CC3)CC2)n1` [Example 102, 1-(4-(2-(4-fluoropiperidin-1-yl)-4-(trifluoromethyl)benzyl)piperazine-1-carbonyl)-1H-pyrazole-3-carboxylic acid], the inhibition at 1 µM is 25 to 50% in test [1], over 75% in test [2], 0 to 25% in test [3] and over 75% in test [4].
`O=C(O)c1ccn(C(=O)N2CCN(Cc3cccc(Oc4cccc(Cl)c4)c3)CC2)n1` [Example 84, 1-(4-(3-(3-chlorophenoxy)benzyl)piperazine-1-carbonyl)-1H-pyrazole-3-carboxylic acid] displayed a 50% inhibitory concentration (IC50) in test [1] of 100 to 1000 nM. Also, the inhibition at 1 µM in test [1] was 0 to 25%; in test [2], over 75%; in test [3], 50 to 75%; in test [4] it was over 75%.
As to `O=C(O)c1ccn(C(=O)N2CC3CN(Cc4cc(F)cc(Cl)c4)CC3C2)n1` (stereo not shown) [Example 115, 1-(5-(3-chloro-5-fluorobenzyl)octa-hydropyrrolo[3,4-c]pyrrole-2-carbonyl)-1H-pyrazole-3-carboxylic acid], the inhibition at 1 µM in test [1] was 50 to 75%; in test [2], 25 to 50%; in test [3], over 75%; in test [4], 0 to 25%.
Consider `O=C(O)c1ccn(C(=O)N2CCN(Cc3ccc(Cl)cc3N3CCN(C4CC4)CC3)CC2)n1` [Example 97, 1-(4-(4-chloro-2-(4-cyclopropylpiper-azin-1-yl)benzyl)piperazine-1-carbonyl)-1H-pyrazole-3-carboxylic acid], for which the inhibition at 1 µM is 0 to 25% in test [1], over 75% in test [2], 0 to 25% in test [3] and over 75% in test [4].
As to `O=C(O)c1ccn(C(=O)N2CCN(Cc3cc(F)cc(Oc4ccc(Cl)cc4)c3)CC2)n1` [Example 161, 1-(4-(3-(4-chlorophenoxy)-5-fluorobenzyl)pipera-zine-1-carbonyl)-1H-pyrazole-3-carboxylic acid], the inhibition at 1 µM in test [1], in test [2], in test [3] and in test [4] was over 75% in each case.
For `O=C(O)c1ccn(C(=O)N2CCN(Cc3cc(N4CCCC4)cc(C(F)(F)F)c3)CC2)n1` [Example 87, 1-(4-(3-(pyrrolidin-1-yl)-5-(trifluoromethyl)benzyl)piperazine-1-carbonyl)-1H-pyrazole-3-carboxylic acid], the inhibition at 1 µM was 0 to 25% in test [1], over 75% in test [2], 0 to 25% in test [3] and over 75% in test [4].

As a reminder, the IC50 is the point on the concentration scale where inhibition reaches its midpoint.
